According to patent US20140045824A1, “METHOD FOR PRODUCING COMPLEX CRYSTAL AND METHOD FOR SCREENING COMPLEX CRYSTAL” (priority 2011, published 2014):

Assay: Cocrystal formation with 1-menthol under humidified condition (Example 3)
Format: physicochemical
Design: key: A cocrystal was completely formed.; B: A mixture of a cocrystal and the host compound or guest compound was formed.; C: A cocrystal was not formed (a mixture of the host compound and the guest compound was formed)
Settings: host theophylline, 1-menthol added, 80° C. and 90% RH
Procedure: About 30 mg (0.167 mmoles) of theophylline and about 29 mg (0.167 mmoles) of L(+)-arginine were weighed and mixed using an agate mortar. […] 15 mg of this mixed powder was weighed and put into a test tube, to which was then added 15 mg of 1-menthol which had been grinded using an agate mortar, followed by vigorously stirring for one minute using a vortex mixer. Thereafter, the obtained mixture of theophylline, L(+)-arginine, and 1-menthol was heated for 6 and 21 hours, respectively in a thermo-hygrostat at 80° C. and 90% RH, and the obtained solids were subjected to powder X-ray diffraction measurement and thermal analysis.

## N=C(N)NCCC[C@H](N)C(=O)O [L(+)-Arginine]
6 hours
  Cocrystal formation, Example 3, Heating for 6 hours: A
21 hours
  Cocrystal formation, Example 3, Heating for 21 hours: A
